Data published in patent US11033538B2, “Dosing regimens for the treatment of lysosomal storage diseases using pharmacological chaperones” (Amicus Therapeutics, Inc., priority 2007, dated 2021).
“Also recorded” adds a separate entry of the source.

How the values were obtained:
[1] = test system: healthy male volunteers
Protocol: Safety was determined by evaluating vital signs, laboratory parameters (serum chemistry, hematology, and urinalysis), ECGs, physical examination and by recording adverse events during the Treatment Period.
Adverse events were coded using the MedDRA version 7.0 dictionary and summarized by treatment for the number of subjects reporting the adverse event and the number of adverse events reported. A by-subject adverse event data listing including verbatim term, coded term, treatment group, severity, and relationship to treatment was provided. Concomitant medications and medical history were listed by treatment.

[2] = test system: GL-3; test: Example 5, kidney GL-3 levels by electron microscopy; assay type: in vivo, human
Protocol: (§1) Eight patients in the study received an ascending dose of 25, 100, and then 250 mg b.i.d. over 6 weeks, followed by 50 mg/day for the remainder of the study.
(§2) Kidney GL-3 levels were assessed by an independent expert using electron microscopy.

[3] = test system: GL-3; test: Example 5, skin GL-3 levels by light and electron microscopy; assay type: in vivo, human; conditions: 10 patients, baseline and after treatment
Protocol: as §1
Skin GL-3 levels at baseline and after treatment as assessed by light and electron microscopy are available for 10 patients.

[4] = test system: GL-3; test: Oral administration of Amigal to mice that produce defective human α-GAL, GL-3; assay type: in vivo
Protocol: as §2

[5] = test system: GL-3; test: Example 6, kidney biopsy GL-3 by mass spectroscopy; assay type: in vivo, human
Protocol: Four male patients received a single 150 mg Q.O.D for 12 weeks (Group B); while five male patients received 150 mg Q.O.D. for 24 weeks (Group C). Finally nine female patients were randomized to receive one of three dosages: 50, 150 or 250 mg Q.O.D for 12 weeks (Group D) (FIG. 8).
Kidney biopsies were performed at baseline, 12 weeks and 24 weeks post-treatment and evaluated for GL-3 deposits in various renal cells. GL-3 presence in the tissue was examined histologically as well as through the use of mass spectroscopy. Light microscopic analysis of kidney biopsies was performed, wherein the accumulation of GL-3 in the tissue was classified in a manner similar to the classification analysis performed in Kidney International, Vol. 62 (2002), pp. 1933-1946 which is hereby incorporated by reference. Cells were classified as containing no GL-3 accumulation (“0”); mild GL-3 accumulation (“1”); moderate GL-3 accumulation (“2”); or severe GL-3 accumulation (“3”).
Kidney GL-3 levels were assessed using histological and mass spectroscopic analysis. Kidney biopsies were examined in four of the “good” responders, two of the “moderate” responders, and two of the “non” responders. Accumulation of GL-3 was examined in three different kidney cell types: interstitial capillaries, distal tubules, and podocytes.

[6] = molecular target: T1, α-GAL (Homo sapiens, UniProt P06280, R301Q); test: Example 8, α-GAL expression in tissues of transgenic mice expressing R301Q; assay type: in vivo; conditions: 100 mg/kg ad libitum, four weeks
T1 construct: from tissue; host or cells: skin, heart, kidney of transgenic mice
T1 sequence (P06280 32-429 R301Q): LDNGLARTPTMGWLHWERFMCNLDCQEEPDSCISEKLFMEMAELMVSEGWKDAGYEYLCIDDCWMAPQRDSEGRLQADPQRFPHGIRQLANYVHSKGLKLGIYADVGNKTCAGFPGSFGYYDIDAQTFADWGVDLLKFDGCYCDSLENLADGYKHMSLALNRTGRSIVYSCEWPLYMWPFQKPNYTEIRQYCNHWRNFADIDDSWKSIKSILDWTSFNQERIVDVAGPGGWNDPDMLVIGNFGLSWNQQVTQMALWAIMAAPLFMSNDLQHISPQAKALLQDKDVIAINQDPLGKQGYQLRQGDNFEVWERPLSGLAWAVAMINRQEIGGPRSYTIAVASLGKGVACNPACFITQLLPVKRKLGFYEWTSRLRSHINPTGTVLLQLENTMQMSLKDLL

[7] = test system: GL-3; test: Example 11, GL-3 levels by LC-MS/MS in hR301Q GLA Tg/KO mice, daily vs less frequent dosing; assay type: in vivo; conditions: 300 mg/kg in drinking water, 4 weeks; skin, heart, kidney, plasma
Protocol: Lysates were prepared from skin, heart, kidney and plasma. GL-3 levels were measured by LC-MS/MS (expressed in mg/g tissue weight or mg/mL plasma). […] Each bar represents the mean±SEM of 10-16 mice/group.

[8] = test system: GL-3; test: Example 15, qualitative GL-3 in glomerular cells; assay type: in vivo, human; conditions: 12 months of DGJ
Protocol: GL-3 changes in podocytes, endothelial cells, and mesangial cells, and glomerular sclerosis, were assessed qualitatively by the same 3 pathologists blinded to treatment/visit.

[9] = test system: lyso-Gb3; test: Example 15, plasma lyso-Gb3; assay type: in vivo, human
Protocol: Plasma lyso-Gb3 and 24-hour urine GL-3 were analyzed by liquid chromatography-mass-spectroscopy using a novel stable isotope-labeled internal standard, 13C6-lyso-Gb3 (lower-limit-of-quantification: 0.200 ng/mL, 0.254 nmol/L).

[10] = test system: patients with Fabry disease; test: Example 15, renal function assessment; assay type: in vivo, human
Protocol: Annualized rates of change (mL/min/1.73 m^2/year) were calculated using Chronic Kidney Disease Epidemiology Collaboration-eGFRCKD-EPI) and measured iohexol clearance-mGFRiohexol).

[11] = test system: patients with Fabry disease; test: Example 15, echocardiography; assay type: in vivo, human; conditions: for decrease in interventricular septal wall thickness from baseline: up to 24 months
Protocol: Left ventricular mass index, left posterior wall thickness, diastolic, interventricular septum thickness, diastolic and other parameters were assessed through blinded, centralized evaluation. The baseline visit of extension study AT1001-041/NCT01458119 was used as the last assessment.

[12] = test system: GL-3; test: Example 15, podocyte GL-3 by electron microscopy stereology; assay type: in vivo, human; conditions: after 6 months of DGJ
Description: This decrease correlated with % reduction in podocyte GL-3 volume (r=0.79, p=0.02). […] The sensitive quantitative method used can assess treatment efficacy for this important cell type over a relatively short period of time. This method is also more sensitive than the methods described above in the kidney analysis of Example 5 (as shown in FIG. 14), as well as the methods earlier in this example relating to qualitative assessment of podocyte GL-3.

[13] = up to 24 months of DGJ, mITT-suitable

## OC[C@H]1NC[C@H](O)[C@@H](O)[C@H]1O [DGJ, (2R,3S,4R,5S)-2-(hydroxymethyl) piperdine-3,4,5-triol]
[1]; 50 mg b.i.d. and 150 mg b.i.d., 7 days
  safety and tolerability: safe and well tolerated
[1]; 50 mg b.i.d. or 150 mg b.i.d.
  adverse events (AEs): no subject presented with AEs
[1]; 50 and 150 mg twice daily for 7 days
  tolerability: generally well-tolerated at all doses
[1]; 50 or 150 mg b.i.d.
  vital sign, ECG, physical examination: No clinically relevant abnormality occurred in any vital sign, ECG, or physical examination parameter
[1]; any treatment group
  serious adverse events: no serious adverse events
[2]; both patients
  decrease of GL-3 levels in other kidney cell types including interstitial capillaries: less than 1 unit
[2]; one patient, 12 weeks of treatment
  kidney GL-3 (mesangial cells, glomerular endothelium, distal tubules): observed decrease in GL-3 in multiple cell types of the kidney of one patient
[2]; second patient, 24 weeks, not independently conclusive
  kidney GL-3 (same cell types): decrease of GL-3 levels in the same kidney cell types
[3]
  skin GL-3 levels: Seven patients had skin GL-3 levels that were normal or near normal both before and after treatment; also recorded: Results for the three other patients were difficult to interpret
[4]
  GL-3 after oral administration: GL-3 reductions observed
[5]; female
  expected good responders with kidney GL-3 decrease of greater than 10%: two of the five
[5]; female expected good responders
  mean decrease in kidney GL-3 levels (mass spectoanalysis): 20%
[5]; male good responders
  good responders with kidney GL-3 decrease of greater than 10%: 3
  mean decrease in kidney GL-3 levels (mass spectroanalysis): 28%
[6]
  α-GAL expression in the skin, heart and kidney: increased
[7]
  GL-3 levels by LC-MS/MS, less frequent (4 days on/3 days off) vs daily dosing: greater reduction in GL-3 levels
[8]
  samples with increases in glomerular cell GL-3: None of the samples had increases
[8]; 5 of 23 biopsies
  biopsies with decrease in glomerular podocyte GL-3: 22%
[8]; 6 of 23 biopsies
  biopsies with decrease in endothelial cell GL-3: 26%
[8]; 11 of 23 biopsies
  biopsies with decrease in mesangial cell GL-3: 48%
[9]; after 6 months of DGJ, baseline 118±48, N=8 males, p=0.0004
  Mean plasma lyso-Gb3: 75 ± 42 nM
[9]; six months of DGJ, mITT-suitable, p=0.0033
  plasma lyso-Gb3 levels: significant reduction in plasma lyso-Gb3 levels compared to placebo
[9]; switching from placebo to DGJ between 6 and 12 months, p<0.0001
  plasma lyso-Gb3: significant reduction in plasma lyso-Gb3
[10]; baseline to month 6, mITT-suitable
  eGFRCKD-EPI or mGFRIohexol changes, DGJ vs placebo: no statistically significant differences
[10]; [13]
  annualized change in eGFRCKD-EPI (±SEM): −0.30±6.6 mL/min/1.73 m^2
  annualized change in mGFRiohexol (±SEM): −1.51±1.33 mL/min/1.73 m^2
[11]; 30/36 months of treatment, ±21.5
  LVMi change from baseline (±SD): −7.8 g/m^2
[11]; 30/36 months, patients with baseline LVH (n=4)
  LVMi change from baseline: −30.0±17.5 g/m^2
[11]; in vivo
  left ventricular posterior wall thickness: stable for up to 24 months
[11]
  decrease in interventricular septal wall thickness from baseline: 5.2%
[11]; ±0.051, baseline 1.17 cm±0.057
  decrease in interventricular septal wall thickness from baseline: 0.061 cm
[12]; baseline 2568±1408, N=8 males, p=0.0182
  mean±SD V(Inc/PC), GL-3 inclusion volume per podocyte: 1282±792 μm^3
[12]; baseline 6680±2835, p=0.004
  mean podocyte volume: 3525±2084 μm^3
